Measured values as given in patent publication US10294202B2, “Pyrrolidinones as herbicides” (FMC Corporation, priority 2013, dated 2019).

Key:
[1] = tested on: pigweed, palmer; assay: Test E preemergence herbicide test; type: in vivo, Amaranthus palmeri; parameters: key: 0 = no effect, 100 = complete control
Description: (§1) Seeds of plant species selected from corn (Zea mays), soybean (Glycine max), velvetleaf (Abutilon theophrasti), lambsquarters (Chenopodium album), wild poinsettia (Euphorbia heterophylla), pigweed, palmer (palmer pigweed, Amaranthus palmeri), waterhemp (common waterhemp, Amaranthus rudis), surinam grass (Brachiaria decumbens), crabgrass, large (large crabgrass, Digitaria sanguinalis), crabgrass, Brazil (Brazilian crabgrass, Digitaria horizontalis), panicum, fall (fall panicum, Panicum dichotomiflorum), foxtail, giant (giant foxtail, Setaria faberii), foxtail, green (green foxtail, Setaria viridis), goosegrass (Eleusine indica), johnsongrass (Sorghum halepense), ragweed (common ragweed, Ambrosia elatior), barnyardgrass (Echinochloa crus-galli), sandbur (southern sandbur, Cenchrus echinatus), arrowleaf […] rhombifolia), ryegrass, Italian (Italian ryegrass, Lolium multiflorum), dayflower, VA (Virginia dayflower, Commelina virginica), field bindweed (Convolvulus arvensis), morningglory (Ipomoea coccinea), nightshade (eastern black nightshade, Solanum ptycanthum), kochia (Kochia scoparia), nutsedge, yellow (yellow nutsedge, Cyperus esculentus), cocklebur (common cocklebur, Xanthium strumarium), smartweed (ladysthumb smartweed, Polygonum Persicaria) and beggarticks (hairy beggarticks, Bidens pilosa), were planted into a silt loam soil and treated preemergence with test chemicals formulated in a non-phytotoxic solvent mixture which included a surfactant. Treated plants and controls were maintained in a greenhouse for 21 days, after which time all species were compared to controls and visually evaluated. Plant response ratings, summarized in Table E, are based on a scale of 0 to 100 where 0 is no effect and 100 is complete control. A dash (-) response means no test result.

[2] = tested on: ryegrass, Italian; assay: Test E preemergence herbicide test; type: in vivo, Lolium multiflorum; parameters: key: 0 = no effect, 100 = complete control
Description: as §1

[3] = tested on: ragweed; assay: Test E preemergence herbicide test; type: in vivo, Ambrosia elatior; parameters: key: 0 = no effect, 100 = complete control
Description: as §1

[4] = tested on: oilseed rape; assay: Test D pre-/postemergence herbicide test; type: in vivo, Brassica napus; details: for Plant response rating: Postemergence, Oilseed Rape, scale 0 to 100; for Plant response rating, Oilseed Rape: Preemergence, scale 0 to 100 (0 no effect, 100 complete control)
Method in brief: (§2)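 Visual injury score, 0 (no effect) to 100 (complete control), taken 7–21 d post-treatment against untreated controls. Application was preemergence in silt loam and postemergence at 1- to 4-leaf stage, using a surfactant-containing non-phytotoxic solvent formulation.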

[5] = tested on: field violet; assay: Test D pre-/postemergence herbicide test; type: in vivo, Viola arvensis; details: for Plant response rating: Field Violet, scale 0 to 100; for Plant response rating, Field Violet: scale 0 to 100 (0 no effect, 100 complete control)
Description: Seeds of plant species selected from bluegrass (annual bluegrass, Poa annua), blackgrass (Alopecurus myosuroides), canarygrass (littleseed canarygrass, Phalaris minor), chickweed (common chickweed, Stellaria media), galium (catchweed bedstraw, Galium aparine), bromegrass, downy (downy bromegrass, Bromus tectorum), field poppy (Papaver rhoeas), field violet (Viola arvensis), foxtail, green (green foxtail, Setaria viridis), deadnettle (henbit deadnettle, Lamium amplexicaule), ryegrass, Italian (Italian ryegrass, Lolium multiflorum), kochia (Kochia scoparia), lambsquarters (Chenopodium album), oilseed rape (Brassica napus), pigweed (Amaranthus retroflexus), chamomile (scentless chamomile, Matricaria inodora), Russian thistle (Salsola kali), speedwell (bird's-eye speedwell, Veronica persica), barley, spring (spring barley, Hordeum vulgare), wheat, spring (spring wheat, Triticum aestivum), buckwheat, wild (wild buckwheat, Polygonum convolvulus), mustard, wild (wild mustard, Sinapis arvensis), oat, wild (wild oat, Avena fatua), radish, wild (wild radish, Raphanus raphanistrum), […]), barley, winter (winter barley, Hordeum vulgare), and wheat, winter (winter wheat, Triticum aestivum) were planted into a silt loam soil and treated preemergence with test chemicals formulated in a non-phytotoxic solvent mixture which included a surfactant. At the same time, these species were planted in pots containing Redi-Earth® planting medium (Scotts Company, 14111 Scottslawn Road, Marysville, Ohio 43041) comprising spaghnum peat moss, vermiculite, wetting agent and starter nutrients and treated with postemergence applications of the test chemicals formulated in the same manner. Plants ranged in height from 2 to 18 cm (1- to 4-leaf stage). Treated plants and controls were maintained in a controlled growth environment for 7 to 21 days after which time all species were compared to controls and visually evaluated. Plant response ratings, summarized in Table D, are based on a scale of 0 to 100 where 0 is no effect and 100 is complete control. A dash (-) response means no test result.

[6] = tested on: wheat, winter; assay: Test D pre-/postemergence herbicide test; type: in vivo, Triticum aestivum; details: for Plant response rating: Postemergence, Wheat, Winter, scale 0 to 100; for Plant response rating, Wheat, Winter: Preemergence, scale 0 to 100 (0 no effect, 100 complete control)
Method in brief: as §2

[7] = tested on: wheat, spring; assay: Test D pre-/postemergence herbicide test; type: in vivo, Triticum aestivum; details: for Plant response rating: Postemergence, Wheat, Spring, scale 0 to 100; for Plant response rating, Wheat, Spring: Preemergence, scale 0 to 100 (0 no effect, 100 complete control)
Method in brief: as §2

[8] = tested on: barnyardgrass; assay: Test E preemergence herbicide test; type: in vivo, Echinochloa crus-galli; parameters: key: 0 = no effect, 100 = complete control
Description: as §1

[9] = tested on: dayflower, VA; assay: Test E preemergence herbicide test; type: in vivo, Commelina virginica; parameters: key: 0 = no effect, 100 = complete control
Description: as §1

Structure (SMILES): O=C1NCC(c2ccc(F)c(F)c2)C1C(=O)Nc1cccc(F)c1F (centres unmarked) [Compound 17, N-(2,3-difluorophenyl)-4-(3,4-difluorophenyl)-2-oxo-3-pyrrolidinecarboxamide]
- Plant response rating, Pigweed, Palmer ([1]; 16 g ai/ha): 0
- Plant response rating, Pigweed, Palmer ([1]; 31 g ai/ha): 0
- Plant response rating, Pigweed, Palmer ([1]; 62 g ai/ha): 0
- Plant response rating, Pigweed, Palmer ([1]; 125 g ai/ha): 0
- Plant response rating, Pigweed, Palmer ([1]; 250 g ai/ha): 0
- Plant response rating, Ryegrass, Italian ([2]; 16 g ai/ha): 0
- Plant response rating, Ryegrass, Italian ([2]; 31 g ai/ha): 0
- Plant response rating, Ryegrass, Italian ([2]; 62 g ai/ha): 0
- Plant response rating, Ryegrass, Italian ([2]; 125 g ai/ha): 0
- Plant response rating, Ryegrass, Italian ([2]; 250 g ai/ha): 0
- Plant response rating, Ragweed ([3]; 16 g ai/ha): 0
- Plant response rating, Ragweed ([3]; 31 g ai/ha): 0
- Plant response rating, Ragweed ([3]; 62 g ai/ha): 0
- Plant response rating, Ragweed ([3]; 125 g ai/ha): 0
- Plant response rating, Ragweed ([3]; 250 g ai/ha): 0
- Plant response rating ([4]; 16 g ai/ha): 0
- Plant response rating ([4]; 31 g ai/ha): 0
- Plant response rating ([4]; 62 g ai/ha): 10
- Plant response rating ([4]; 125 g ai/ha): 20
- Plant response rating ([4]; 250 g ai/ha): 40
- Plant response rating ([5]; Postemergence, 16 g ai/ha): 0
- Plant response rating ([5]; Postemergence, 31 g ai/ha): 0
- Plant response rating ([5]; Postemergence, 62 g ai/ha): 0
- Plant response rating ([5]; Postemergence, 125 g ai/ha): 0
- Plant response rating ([5]; Postemergence, 250 g ai/ha): 10
- Plant response rating ([6]; 16 g ai/ha): 0
- Plant response rating ([6]; 31 g ai/ha): 0
- Plant response rating ([6]; 62 g ai/ha): 0
- Plant response rating ([6]; 125 g ai/ha): 0
- Plant response rating ([6]; 250 g ai/ha): 0
- Plant response rating ([7]; 16 g ai/ha): 0
- Plant response rating ([7]; 31 g ai/ha): 0
- Plant response rating ([7]; 62 g ai/ha): 0
- Plant response rating ([7]; 125 g ai/ha): 0
- Plant response rating ([7]; 250 g ai/ha): 0
- Plant response rating, Barnyardgrass ([8]; 16 g ai/ha): 0
- Plant response rating, Barnyardgrass ([8]; 31 g ai/ha): 0
- Plant response rating, Barnyardgrass ([8]; 62 g ai/ha): 80
- Plant response rating, Barnyardgrass ([8]; 125 g ai/ha): 95
- Plant response rating, Barnyardgrass ([8]; 250 g ai/ha): 98
- Plant response rating, Dayflower, VA ([9]; 16 g ai/ha): 0
- Plant response rating, Dayflower, VA ([9]; 31 g ai/ha): 0
- Plant response rating, Dayflower, VA ([9]; 62 g ai/ha): 0
- Plant response rating, Dayflower, VA ([9]; 125 g ai/ha): 0
- Plant response rating, Dayflower, VA ([9]; 250 g ai/ha): 0

Structure (SMILES): O=C1NCC(c2ccc(C(F)(F)F)cc2)C1C(=O)Nc1ccccc1F (centres unmarked) [Compound 231]
- Plant response rating ([4]; 31 g ai/ha): 15
- Plant response rating ([4]; 62 g ai/ha): 10
- Plant response rating ([4]; 125 g ai/ha): 20
- Plant response rating ([4]; 250 g ai/ha): 40
- Plant response rating, Oilseed Rape ([4]; 62 g ai/ha): 0
- Plant response rating, Oilseed Rape ([4]; 125 g ai/ha): 45
- Plant response rating, Oilseed Rape ([4]; 31 g ai/ha): 0
- Plant response rating, Oilseed Rape ([4]; 250 g ai/ha): 55
- Plant response rating ([5]; Postemergence, 31 g ai/ha): 20
- Plant response rating ([5]; Postemergence, 62 g ai/ha): 20
- Plant response rating ([5]; Postemergence, 125 g ai/ha): 10
- Plant response rating ([5]; Postemergence, 250 g ai/ha): 25
- Plant response rating, Field Violet ([5]; Preemergence, 62 g ai/ha): 0
- Plant response rating, Field Violet ([5]; Preemergence, 125 g ai/ha): 10
- Plant response rating, Field Violet ([5]; Preemergence, 31 g ai/ha): 0
- Plant response rating ([5]; Preemergence, 250 g ai/ha): 0
- Plant response rating ([6]; 31 g ai/ha): 0
- Plant response rating ([6]; 62 g ai/ha): 0
- Plant response rating ([6]; 125 g ai/ha): 0
- Plant response rating ([6]; 250 g ai/ha): 0
- Plant response rating, Wheat, Winter ([6]; 62 g ai/ha): 10
- Plant response rating, Wheat, Winter ([6]; 125 g ai/ha): 15
- Plant response rating, Wheat, Winter ([6]; 31 g ai/ha): 5
- Plant response rating, Wheat, Winter ([6]; 250 g ai/ha): 25
- Plant response rating ([7]; 31 g ai/ha): 0
- Plant response rating ([7]; 62 g ai/ha): 0
- Plant response rating ([7]; 125 g ai/ha): 0
- Plant response rating ([7]; 250 g ai/ha): 0
- Plant response rating, Wheat, Spring ([7]; 62 g ai/ha): 5
- Plant response rating, Wheat, Spring ([7]; 125 g ai/ha): 0
- Plant response rating, Wheat, Spring ([7]; 31 g ai/ha): 0
- Plant response rating, Wheat, Spring ([7]; 250 g ai/ha): 20
